The values below come from BindingDB's records for doi:10.1016/j.bioorg.2017.01.015 (Universiti Teknologi MARA (UiTM), 2017).

For orientation: IC50 means the midpoint of a concentration-inhibition curve.

The test addresses T1, Beta-glucuronidase (Homo sapiens, UniProt P08236).
T1 sequence (P08236 whole entry): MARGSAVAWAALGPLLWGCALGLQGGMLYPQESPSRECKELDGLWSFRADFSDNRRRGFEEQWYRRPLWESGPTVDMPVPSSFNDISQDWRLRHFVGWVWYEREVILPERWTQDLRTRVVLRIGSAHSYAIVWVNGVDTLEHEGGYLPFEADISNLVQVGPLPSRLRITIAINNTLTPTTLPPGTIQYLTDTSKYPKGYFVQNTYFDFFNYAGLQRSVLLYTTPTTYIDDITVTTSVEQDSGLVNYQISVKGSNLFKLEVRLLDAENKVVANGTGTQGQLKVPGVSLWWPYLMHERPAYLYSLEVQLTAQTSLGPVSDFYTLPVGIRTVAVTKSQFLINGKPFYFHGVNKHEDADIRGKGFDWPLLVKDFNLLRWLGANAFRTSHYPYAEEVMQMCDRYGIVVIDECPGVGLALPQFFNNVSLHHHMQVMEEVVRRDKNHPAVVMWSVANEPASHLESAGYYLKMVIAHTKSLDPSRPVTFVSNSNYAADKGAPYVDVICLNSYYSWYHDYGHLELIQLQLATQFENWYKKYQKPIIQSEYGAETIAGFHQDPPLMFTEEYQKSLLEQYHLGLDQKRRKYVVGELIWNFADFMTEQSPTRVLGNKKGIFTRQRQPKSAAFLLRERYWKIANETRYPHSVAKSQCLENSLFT
Kind of test: β-Glucuronidase Assay.
Procedure: 250 μL was the volume of total reaction. Reaction mixture containing 5 μL of test compound solution, 185 μL of 0.1 M acetate buffer and 10 μL of enzyme solution were incubated for 30 min at 37 °C. […] To avoid precipitation compound concentration were decreased and the volume of reaction was high (200 μL). Precipitation probability was less thus addition of detergents was not needed.
The compound `COc1ccccc1-c1nnc(-c2ccc(C(=O)NNS(=O)(=O)c3ccccc3Br)cc2)o1` [2-Bromo-N'-(4-(5-(2-methoxyphenyl)-1,3,4-oxadiazol-2yl)benzoyl)benzenesulfonohydrazide (7)] showed a half-maximal inhibitory concentration (IC50) of 38.5 µM.

The compound `COc1ccccc1-c1nnc(-c2ccc(C(=O)NNS(=O)(=O)c3ccccc3F)cc2)o1` [2-Fluoro-N'-(4-(5-(2-methoxyphenyl)-1,3,4-oxadiazol-2yl)benzoyl)benzenesulfonohydrazide (4)] registered an IC50 of 10.3 µM.

The compound `COc1ccccc1-c1nnc(-c2ccc(C(=O)NNS(=O)(=O)c3cccc(Br)c3)cc2)o1` [3-Bromo-N'-(4-(5-(2-methoxyphenyl)-1,3,4-oxadiazol-2yl)benzoyl)benzenesulfonohydrazide (9)] gave an IC50 of 58.2 µM.

In the case of `COc1ccccc1-c1nnc(-c2ccc(C(=O)NNS(=O)(=O)c3cccc(F)c3)cc2)o1` [3-Fluoro-N'-(4-(5-(2-methoxyphenyl)-1,3,4-oxadiazol-2yl)benzoyl)benzenesulfonohydrazide (5)], the midpoint of inhibition, the IC50, lay at 28.1 µM.

In the case of `COc1ccccc1-c1nnc(-c2ccc(C(=O)NNS(=O)(=O)c3ccc(C)cc3)cc2)o1` [4-methyl-N'-(4-(5-(2-methoxyphenyl)-1,3,4-oxadiazol-2-yl)benzoyl)-4-methylbenzenesulfonohydrazide (15)], the concentration for half-maximal inhibition (IC50) turned out to be 98.1 µM.

`COc1ccccc1-c1nnc(-c2ccc(C(=O)NNS(=O)(=O)c3ccccc3C)cc2)o1` [N'-(4-(5-(2-methoxyphenyl)-1,3,4-oxadiazol-2-yl)benzoyl)-2-methylbenzenesulfonohydrazide (14)]: the IC50 stood at 24.3 µM.

For `COc1ccccc1-c1nnc(-c2ccc(C(=O)NNS(=O)(=O)c3ccccc3[N+](=O)[O-])cc2)o1` [N'-(4-(5-(2-methoxyphenyl)-1,3,4-oxadiazol-2-yl)benzoyl)-2-nitrobenzenesulfonohydrazide (10)], 44.7 µM corresponded to half-maximal inhibition (IC50).

Regarding `COc1ccccc1-c1nnc(-c2ccc(C(=O)NNS(=O)(=O)c3cccc([N+](=O)[O-])c3)cc2)o1` [N'-(4-(5-(2-methoxyphenyl)-1,3,4-oxadiazol-2-yl)benzoyl)-3-nitrobenzenesulfonohydrazide (12)], the half-inhibitory concentration (IC50) is 89.3 µM.
